This series in a line: Stability of aromatic amino acids during acidic hydrolysis (HPLC). In kind it is physicochemical. As to conditions: hydrochloric acid, 24 h at 120 °C, 1 mg/mL before hydrolysis, HPLC with UV 214 nm. As to the method: For acidic hydrolysis 10 µL ^13C6(ring) phenylalanine (1 mg/mL stock) were added as internal standard to 200 µL water containing ^13C9,^15N1 phenylalanine (for calibration curve) or human serum (from voluntary donors) containing Pep19-2.5 with four ^13C9,^15N1 phenylalanine residues. After addition of 270 µL hydrochloric acid (10 M), the samples were hydrolyzed at 120 °C for 24 h. Subsequently, the solvent was evaporated in a vacuum evaporator (HETOVAC) at 40 °C for 4 h and the pellet was resuspended in water to achieve the applied concentration.
HPLC analysis was performed using an Agilent 1100 system with an UV-detection at 214 nm. As stationary phase a Chromolith® Performance RP-18e 100–3 mm column (Merck KGaA, Darmstadt, Germany) was used. A 5 min linear gradient from 100% water (+0.05% trifluoroacetic acid (TFA)) to 100% acetonitrile (+0.05% TFA) was applied.
For an accurate determination it is necessary to select an amino acid which is stable under the extreme conditions in the hydrolysis step (24 h, 120 °C). Moreover, the development of the method is facilitated if the amino acid is UV-active and more importantly in case of hydrophobic amino acids that are separated from the bulk of amino acids by RP-HPLC. Due to this, the three aromatic amino acids phenylalanine, tryptophan and tyrosine were hydrolyzed, and their stability analyzed by HPLC, as shown in Figure 4.

Consider `N[C@@H](Cc1ccccc1)C(=O)O` [phenylalanine], for which the “stability during the acidic hydrolysis process” value was “sufficiently stable”.
Consider `N[C@@H](Cc1ccc(O)cc1)C(=O)O` [tyrosine], for which the “stability during the acidic hydrolysis process” value was “degraded to poorly soluble products”.
Take `N[C@@H](Cc1c[nH]c2ccccc12)C(=O)O` [Tryptophan, tryptophan]: the “stability during the acidic hydrolysis process” value is reported as “forms several degradation products”.

The record behind these values is paper PMC8466825, “Mass Spectrometric Quantification of the Antimicrobial Peptide Pep19-2.5 with Stable Isotope Labeling and Acidic Hydrolysis” (Pharmaceutics, 2021).
